Reference: patent US8124793B2, “Derivatives of ethylene methanedisulfonate as cancer chemotherapeutic agents” (priority 2007, dated 2012)

Columns and labels:
Assay type in all cases: cell-based
[1] = system: HL-60 (TB); assay: NCI screen, growth of human tumor cells: Leukemia HL-60 (TB); settings: HL-60 (TB) (Leukemia), 10^−4 molar
Protocol: (§1) In the NCI screening process, each compound was tested and described by a minimum of 60 data points. The test data include, but are not limited to the type of cancer, the molar concentration used in the screen, and the percent growth of the cancer. In some cases, NMR and elemental analysis were used for structural assignment.

[2] = system: K562; assay: NCI screen, growth of human tumor cells: Leukemia K562; settings: K562 (Leukemia), 10^−4 molar
Protocol: as §1

[3] = system: MOLT-4; assay: NCI screen, growth of human tumor cells: Leukemia MOLT-4
Protocol: as §1

[4] = system: SR; assay: NCI screen, growth of human tumor cells: Leukemia SR; settings: SR
Protocol: as §1

[5] = system: HOP-62; assay: NCI screen, growth of human tumor cells: Non-Small Cell Lung HOP-62; settings: HOP-62, 10^−4 molar
Protocol: as §1

[6] = system: COLO205; assay: NCI screen, growth of human tumor cells: Colon Cancer COLO205; settings: COLO205 (Colon Cancer), 10^−4 molar
Protocol: as §1

[7] = system: UO-31; assay: NCI screen, growth of human tumor cells: Renal Cancer UO-31; settings: UO-31 (Renal Cancer), 10^−4 molar
Protocol: as §1

[8] = system: HS 578T; assay: NCI screen, growth of human tumor cells: Breast Cancer HS 578T; settings: HS 578T (Breast Cancer), 10^−4 molar
Protocol: as §1

[9] = system: MDA-MB-435; assay: NCI screen, growth of human tumor cells: Breast Cancer MDA-MB-435; settings: for percent of growth of human tumor cells: MDA-MB-435 (Breast Cancer), 10^−4 molar
Protocol: as §1

[10] = system: human cancer cells; assay: NCI screen summary over the cancers tested (negative growth of human cancer cells); settings: 10^−4 M conc.; cancers with negative growth / cancers tested
Protocol: as §1
The derivatives in the tables are grouped using the same category as in the tables 1-6.

[11] = system: KD488; assay: NCI screen, growth of human tumor cells: Lymphoma KD488
[12] = system: CCRF-CEM; assay: NCI screen, growth of human tumor cells: Leukemia CCRF-CEM; settings: CCRF-CEM (Leukemia), 10^−4 molar
Protocol: as §1

[13] = system: NCI-H522; assay: NCI screen, growth of human tumor cells: Non-Small Cell Lung NCI-H522; settings: NCI-H522 (Non-Small Cell Lung), 10^−4 molar
Protocol: as §1

[14] = system: HCC-2998; assay: NCI screen, growth of human tumor cells: HCC-2998 (listed under Non-Small Cell Lung)
Protocol: as §1

[15] = system: M14; assay: NCI screen, growth of human tumor cells: Melanoma M14; settings: M14 (Melanoma), 10^−4 molar
Protocol: as §1

[16] = system: DU-145; assay: NCI screen, growth of human tumor cells: Prostate Cancer DU-145; settings: DU-145 (Prostate Cancer), 10^−4 molar
Protocol: as §1

[17] = system: HOP-92; assay: NCI screen, growth of human tumor cells: Non-Small Cell Lung HOP-92; settings: HOP-92 (Non-Small Cell Lung), 10^−4 molar
Protocol: as §1

[18] = system: NCI-H460; assay: NCI screen, growth of human tumor cells: Non-Small Cell Lung NCI-H460; settings: NCI-H460 (Non-Small Cell Lung), 10^−4 molar
Protocol: as §1

[19] = system: NCI-H23; assay: NCI screen, growth of human tumor cells: Non-Small Cell Lung NCI-H23; settings: NCI-H23 (Non-Small Cell Lung), 10^−4 molar
Protocol: as §1

[20] = system: HCT-15; assay: NCI screen, growth of human tumor cells: Colon Cancer HCT-15; settings: HCT-15 (Colon Cancer), 10^−4 molar
Protocol: as §1

[21] = system: SF-268; assay: NCI screen, growth of human tumor cells: CNS Cancer SF-268; settings: SF-268 (CNS Cancer), 10^−4 molar
Protocol: as §1

[22] = system: SNB-75; assay: NCI screen, growth of human tumor cells: CNS Cancer SNB-75; settings: SNB-75 (CNS Cancer), 10^−4 molar
Protocol: as §1

[23] = system: U-251; assay: NCI screen, growth of human tumor cells: CNS Cancer U-251; settings: U-251 (CNS Cancer), 10^−4 molar
Protocol: as §1

[24] = system: LOXIMVI; assay: NCI screen, growth of human tumor cells: Melanoma LOXIMVI; settings: LOXIMVI (Melanoma), 10^−4 molar
Protocol: as §1

[25] = system: MALME-3M; assay: NCI screen, growth of human tumor cells: Melanoma MALME-3M; settings: MALME-3M (Melanoma), 10^−4 molar
Protocol: as §1

[26] = system: SK-MEL-5; assay: NCI screen, growth of human tumor cells: Melanoma SK-MEL-5; settings: SK-MEL-5 (Melanoma), 10^−4 molar
Protocol: as §1

[27] = system: UACC-257; assay: NCI screen, growth of human tumor cells: Melanoma UACC-257; settings: UACC-257 (Melanoma), 10^−4 molar
Protocol: as §1

[28] = system: UACC-62; assay: NCI screen, growth of human tumor cells: Melanoma UACC-62; settings: UACC-62 (Melanoma), 10^−4 molar
Protocol: as §1

[29] = system: IGROVI; assay: NCI screen, growth of human tumor cells: Ovarian Cancer IGROVI; settings: IGROVI (Ovarian Cancer), 10^−4 molar
Protocol: as §1

[30] = system: OVCAR-3; assay: NCI screen, growth of human tumor cells: Ovarian Cancer OVCAR-3; settings: OVCAR-3 (Ovarian Cancer), 10^−4 molar
Protocol: as §1

[31] = system: OVCAR-4; assay: NCI screen, growth of human tumor cells: Ovarian Cancer OVCAR-4; settings: OVCAR-4 (Ovarian Cancer), 10^−4 molar
Protocol: as §1

[32] = system: SN12C; assay: NCI screen, growth of human tumor cells: Renal Cancer SN12C; settings: SN12C (Renal Cancer), 10^−4 molar
Protocol: as §1

[33] = system: MCF 7; assay: NCI screen, growth of human tumor cells: Breast Cancer MCF 7; settings: MCF 7 (Breast Cancer), 10^−4 molar
Protocol: as §1

[34] = system: MCF7/ADR-RES; assay: NCI screen, growth of human tumor cells: Breast Cancer MCF7/ADR-RES; settings: MCF7/ADR-RES (Breast Cancer), 10^−4 molar
Protocol: as §1

[35] = system: BT-549; assay: NCI screen, growth of human tumor cells: Breast Cancer BT-549; settings: BT-549 (Breast Cancer), 10^−4 molar
Protocol: as §1

SMILES: CC1=C(CC2(C(=O)C(=O)OCC3COC(C)(C)O3)S(=O)(=O)OCCOS2(=O)=O)C(=O)c2ccccc2C1=O (centres unmarked) [NSC 737277]
- percent of growth of human tumor cells [1]: −33%
- percent of growth of human tumor cells [2]: 5%
- percent of growth of human tumor cells ([3]; MOLT-4 (Leukemia), 10^−4 molar): −12%
- % Growth ([4]; 10^−4 molar): −25%
- % Growth ([4]; 10^−5 molar): 50%
- % Growth [5]: −84%
- percent of growth of human tumor cells [6]: −8%
- percent of growth of human tumor cells [7]: 22%
- percent of growth of human tumor cells [8]: 24%
- percent of growth of human tumor cells [9]: −11%
- Percentage of cancers showing negative growth cancers tested [10]: 10^−4 M conc. = 6/9 = 67%

SMILES: O=C(c1cccc2ccccc12)C1(Br)S(=O)(=O)OCCOS1(=O)=O [compound 679048]
- % Growth ([11]; KD488, 10^−4 molar): 54%
- % Growth ([11]; KD488, 10^−5 molar): 51%
- % Growth ([11]; KD488, 10^−6 molar): 34%
- % Growth ([11]; KD488, 10^−7 molar): 100%
- % Growth ([11]; KD488, 10^−8 molar): 52%

SMILES: CC1(C)OCC(COC(=O)C(=O)C2(C3=C(Cl)C(=O)c4ccccc4C3=O)S(=O)(=O)OCCOS2(=O)=O)O1 (centres unmarked) [NSC 737278]
- percent of growth of human tumor cells [12]: 22%
- percent of growth of human tumor cells [1]: −25%
- percent of growth of human tumor cells [2]: 12%
- % Growth ([3]; MOLT-4, 10^−4 molar): −41%
- % Growth ([3]; MOLT-4, 10^−5 molar): 53%
- % Growth ([4]; 10^−4 molar): −37%
- % Growth ([4]; 10^−5 molar): 20%
- % Growth ([4]; 10^−6 molar): 33%
- % Growth ([4]; 10^−7 molar): 56%
- percent of growth of human tumor cells [13]: −30%
- % Growth ([14]; HCC-2998, 10^−4 molar): −15%
- % Growth ([14]; HCC-2998, 10^−5 molar): 41%
- % Growth ([14]; HCC-2998, 10^−6 molar): 45%
- % Growth ([14]; HCC-2998, 10^−7 molar): 64%
- percent of growth of human tumor cells [6]: −9%
- percent of growth of human tumor cells [15]: −4%
- percent of growth of human tumor cells [7]: 4%
- percent of growth of human tumor cells [16]: 6%
- percent of growth of human tumor cells [9]: −45%
- Percentage of cancers showing negative growth cancers tested [10]: 10^−4 M conc. = 8/12 = 67%

SMILES: CCOCC1(CC2=C(C)C(=O)c3ccccc3C2=O)S(=O)(=O)OCCOS1(=O)=O [NSC 698124]
- percent of growth of human tumor cells [17]: 27%
- percent of growth of human tumor cells [13]: −45%
- percent of growth of human tumor cells [18]: 11%
- percent of growth of human tumor cells [19]: 16%
- percent of growth of human tumor cells ([14]; HCC-2998 (under Non-Small Cell Lung), 10^−4 molar): 8%
- percent of growth of human tumor cells [6]: −25%
- percent of growth of human tumor cells [20]: 15%
- percent of growth of human tumor cells [21]: 20%
- percent of growth of human tumor cells [22]: 11%
- percent of growth of human tumor cells [23]: 20%
- percent of growth of human tumor cells [24]: −55%
- percent of growth of human tumor cells [25]: −9%
- percent of growth of human tumor cells [26]: 9%
- percent of growth of human tumor cells [27]: 12%
- percent of growth of human tumor cells [28]: −32%
- percent of growth of human tumor cells [29]: 6%
- percent of growth of human tumor cells [30]: −17%
- percent of growth of human tumor cells [31]: 14%
- percent of growth of human tumor cells [32]: −25%
- percent of growth of human tumor cells [16]: 27%
- percent of growth of human tumor cells [33]: 19%
- percent of growth of human tumor cells [34]: 30%
- percent of growth of human tumor cells [35]: 27%
- percent of growth of human tumor cells [8]: 27%
- % Growth ([9]; MDA-MB-435, 10^−4 molar): −74%
- Percentage of cancers showing negative growth cancers tested [10]: 10^−4 M conc. = 8/25 = 32%
